Earlier results in the CATMoS acute toxicity set (Mansouri et al. 2021).
“And” between values parts separate entries of the source, which are not always exact repeats. Equal values may be shown once.

Assay: rat acute oral toxicity
Details: in vivo

| SMILES | LD50 |
| --- | --- |
| CCOC(=O)C(N)Cc1ccc(O)cc1 (stereo not given) | 13800 mg/kg |
| O=C(CF)Nc1ccccn1 | 8 mg/kg |
| CCCCc1c(OC(=O)c2cccs2)n(-c2ccccc2)n(-c2ccccc2)c1=O | 1180 mg/kg |
| COc1ccccc1N1CCN(CCCNc2cc(=O)n(C)c(=O)n2C)CC1 | 520 mg/kg |
| CC(C)Cc1ccc2ccccc2n1 | 1020 mg/kg |
| O=[N+]([O-])c1ccc(/C=N/NC(=S)N2CCCCC2)o1 | 750 mg/kg |
| CCCCCCOC(=O)c1ccccc1C(=O)OCCCCCC | 29600 mg/kg |
| COCCO[Si](CCCl)(OCCOC)OCCOC | 878 mg/kg |
| Cc1cccnc1-n1c(C)nc2ccccc2c1=O | 395 mg/kg |
| CCCCCOC(C[n+]1ccccc1)c1ccc(C2CCCC2)cc1 (stereo not given) | 250 mg/kg |
| CN1CCN(CC(=O)NN=Cc2ccc([N+](=O)[O-])o2)CC1 | 1350 mg/kg |
| CC1=C(C(=O)OCOC(=O)C(C)(C)C)N2C(=O)[C@@H](NC(=O)C(N)c3ccccc3)[C@H]2SC1 (stereo not given in full) | 4000 mg/kg |
| O=[N+]([O-])c1ccc(/C=N/NC(=S)N2CCCC2)o1 | 750 mg/kg |
| CC1(C(=O)O)C2CCC(O2)C1C(=O)O (stereo not given) | 50 mg/kg |
| Cc1cccc(C#N)c1C | 3000 mg/kg |
| CN1CCC23c4c5ccc(O)c4OC2C(N=[N+]=[N-])CCC3(O)C1C5 (stereo not given) | 190 mg/kg |
| O=C(Nc1ccc(O)cc1)c1ccccc1O | 6700 mg/kg |
| CN(C)C/C=C(/c1ccc(Br)cc1)c1cccnc1 | 900 mg/kg and 844 mg/kg |
| Cc1cc(C)c(C)c(C)c1 | 5160 mg/kg |
| O=CC(Br)=Cc1ccccc1 | 1450 mg/kg |
| CC(C)=CC(N)=O | 3560 mg/kg |
| CCCC[N+](CCCC)(CCCC)CCCC | 1990 mg/kg |
| O=C(O)C(F)(F)C(F)(F)C(F)(F)C(F)(F)C(F)(F)C(F)(F)C(F)(F)C(F)(F)C(F)(F)C(F)F | 518 mg/kg |
| O=C(CF)OCCOC(=O)CF | 2.2 mg/kg |
| Cc1cc(N(C)C)nc(Cl)n1 | 1.25 mg/kg |

| SMILES | LD50 |
| --- | --- |
| Cc1c(I)c(=O)n(-c2ccccc2)n1C | 2060 mg/kg |
| OCC=CCO | 1250 mg/kg |
| Nc1ccc(Cl)cc1Cl | 1600 mg/kg |
| O=C[C@H](O)[C@@H](O)[C@H](O)[C@H](O)CO | 25800 mg/kg |
| CCCCO[Si](OCCCC)(OCCCC)N(C)C1CCCCC1 | 3550 mg/kg |
| C=CCn1c(C)c(N(C)C)c(=O)n(-c2ccccc2)c1=O | 2400 mg/kg |
| CCS(=O)(=O)CCOP(=S)(OC)OC | 500 mg/kg |
| O=C1OCC(CCl)O1 (stereo not given) | 80 mg/kg |
| COP(=S)(OC)SC(C(=O)OC(C)C)c1ccccc1 (stereo not given) | 205 mg/kg |
| CNC(=O)ON=C1SC(=NN(C)C)SC1(C)C | 1.8 mg/kg |
| CCN(CC)CCOC1(c2ccc(Cl)cc2)CCCCC1 | 500 mg/kg |
| c1ccc2c(c1)Cc1ccccc1N2 | 2140 mg/kg |
| CN1CCc2ccccc21 | 1250 mg/kg |
| COc1ccc(NC(=O)CC(C)=O)cc1 | 1700 mg/kg |
| NC(=O)c1ccc([N+](=O)[O-])cc1 | 476 mg/kg |
| N=C(N)NCC1CCC(C(=O)Oc2ccccc2C(=O)OCc2ccccc2)CC1 (stereo not given) | 8010 mg/kg |
| CCCCOP(=O)(OCCCC)Oc1ccc2c(C)c(Cl)c(=O)oc2c1 | 63 mg/kg |
| COP(=S)(OC)Oc1ccc(Cl)c([N+](=O)[O-])c1 | 500 mg/kg |
| CC(C)(COC(N)=O)COC(N)=O | 2510 mg/kg |
| c1ccc(C(OCCN2CCOCC2)c2ccccc2)cc1 | 916 mg/kg |
| Cc1cc(O)ccc1S(C)=O (stereo not given) | 3500 mg/kg |
| S=C1SSC2=NCCN12 | 380 mg/kg |
| CCOP(=O)(OCC)SCC1(C)SCCS1 | 28 mg/kg |
| O=COCCOC=O | 1510 mg/kg |
| CCOP(=S)(OCC)SCSC(=S)N(C)C | 150 mg/kg |

| SMILES | LD50 |
| --- | --- |
| Cl[C@H]1[C@H](Cl)[C@@H](Cl)[C@H](Cl)[C@@H](Cl)[C@H]1Cl (racemic) | 1000 mg/kg |
| OC(CBr)C(O)C(O)C(O)CBr (stereo not given) | 1000 mg/kg |
| Nc1c(Cl)c(Cl)c2[nH]c(C(F)(F)F)nc2c1Cl | 23 mg/kg |
| N#CN=c1ccccn1Cc1ccc(Cl)cc1 | 500 mg/kg |
| CCOC(=O)c1ccccc1O | 1320 mg/kg |
| CCCCc1ccc(O)cc1O | 500 mg/kg |
| CCOC(=O)C(C)(CC)Oc1ccc(Cc2ccc(Cl)cc2)cc1 (stereo not given) | 9000 mg/kg |
| CCNC(=O)C(C)OC(=O)Nc1ccccc1 (stereo not given) | 11000 mg/kg |
| CN(C)CC(=O)N/N=C/c1c(Cl)nc2sccn12 | 1500 mg/kg |
| N#Cc1ccc2c(c1)N(CCCN1CCC(O)CC1)c1ccccc1S2 | 395 mg/kg |
| CON(C(=O)c1cc(C)oc1C)C1CCCCC1 | 3780 mg/kg |
| C=CCSCC=C | 2980 mg/kg |
| CCN(CCCl)c1ccccc1 | 616 mg/kg |
| CNC(C)CC1CCCC1 (stereo not given) | 169 mg/kg |
| CCN1C[C@H]2CN(C)C[C@@H](C1)C2OC(=O)c1ccc(Cl)cc1 (stereo not given in full) | 383 mg/kg |
| OCC(Cl)CCl (stereo not given) | 90 mg/kg |
| CC(CN1c2ccccc2Sc2cccnc21)N(C)C (stereo not given) | 1220 mg/kg |
| CNCC12CCC(c3ccccc31)c1ccccc12 | 700 mg/kg and 600 mg/kg |
| Nc1ccc(O)c2c1C(=O)c1c(N)c(Br)cc(O)c1C2=O | 12500 mg/kg |
| CCCCC(CC)CNC(=O)CC(C)OC(=O)CCC(=O)O (stereo not given) | 12100 mg/kg |
| Nc1ccc2cc(S(=O)(=O)O)ccc2c1CS(=O)(=O)O | 9200 mg/kg |
| CN1CCC(N(Cc2ccccc2)c2ccccc2)CC1 | 460 mg/kg |
| COc1cc2c(cc1OC)[C@@]13CCN4CC5=CCO[C@H]6CC(=O)N2[C@H]1[C@H]6[C@H]5C[C@H]43 | 1 mg/kg |
| CCOP(=S)(OCC)SCn1c(=O)oc2ccccc21 | 81 mg/kg |
| CCCN=C(NCCC)C(OCC)c1ccccc1 (stereo not given) | 95 mg/kg |
